Experiments:
Hs68 human fibroblasts = assay: Cellular uptake and localization of fluorescently labelled siRNA by fluorescence microscopy on living cells; type: cell-based; conditions: for final subcellular localization of fluorescently-labeled siRNA: GAPDH siRNA, molar ratio 10/1, Hs68, living cells; for efficiency of siRNA delivery into cultured cells (% cells): fluorescently-labelled GAPDH siRNA, carrier/siRNA molar ratio 10/1, Hs68, 30 min, with serum
Procedure: Hs68 (ATCC no CRL-1635), Cos-7 (ATCC no CRL-1651) and HeLa (ATCC no CCL-2) cell lines were cultured in Dulbecco's Modified Eagle's Medium supplemented with 2 mM glutamine, 1% antibiotics (streptomycin 10 000 μg/ml, penicillin, 10,000 IU/ml) and 10% (w/v) fetal calf serum (FCS) at 37° C. in a humidified atmosphere containing 5% CO2 as described previously (18). For MPG or MPG^ΔNLS-mediated gene delivery, peptide carrier/siRNA complexes were formed in DMEM or PBS, at a charge ratio 10:1 and incubated for 30 min at 37° C. Cells grown to 60% confluence were then overlaid with these preformed complexes. After 30 min incubation at 37° C., 1 ml of fresh DMEM supplemented with 10% fetal calf serum was added to the cells, without removing the overlay of carrier/siRNA, and cells were returned to the incubator.
Transfections were performed for 1 hour, after which cells were extensively washed and either analyzed by fluorescence microscopy in order to determine the cellular localization of the fluorescently labeled oligonucleotide or returned to the incubator at 37° C. in the presence of fresh medium supplemented with serum.
siRNA targeting the 3′UTR of GAPDH were from the Silencer™ GAPDH siRNA kit (Ambion). Fluorescent labeling of siRNA was performed using either the Fam or the Cy3 Silencer™ labeling kit (Ambion) and modified as described in the manufacturer's protocol. pRL-Luc reporter gene was from Promega and siRNA targeting luciferase sense ^5′[…]^3′ (SEQ ID NO:4) and antisense ^3′ […]^5′ (SEQ ID NO:5) and mismatch sense ^5′[…]^3′ (SEQ ID NO:6) and antisense ^3′[…]^5″ (SEQ ID NO:7) siRNA were obtained from Genset Oligos.
RNA interference (siRNA) constitutes a powerful tool to silence gene expression post-transcriptionally (28, 29). In order to validate the potential of MPG-like carriers, the ability of MPG and MPG^ΔNLS to promote cellular uptake of siRNA was investigated. Fluorescently-labelled siRNA designed to silence GAPDH were complexed with both MPG and MPG^ΔNLS at a molar ratio of 10/1, incubated onto cultured Hs68 human fibroblasts in the presence of serum for 30 min, following which internalization and subcellular localization of siRNA were examined by fluorescence microscopy. Two different fluorescent probes (fluorescein and Cy-3), were used in order to avoid any artefacts which might have been associated with the nature of the probe. As fixation procedures have sometimes been reported to cause artifactual uptake (30-32), experiments were performed on living cells.

importin α = assay: In vitro binding of carrier/DNA complexes to immobilized GST-importin α; conditions: 1 hr at 25° C., agarose gel
Procedure: FIG. 2: The NLS of MPG is essential for nuclear translocation: A/ Purified GST-importin α and β were coupled onto GST Sepharose resin and incubated in batch with MPG/DNA or MPG^ΔNLS/DNA complexes for 1 hr, extensively washed and incubated with […] glutathione to elute the complexes. DNA was then extracted and analyzed by agarose gel electrophoresis (0.8%). […] B/ Delivery of pRL-SV40 plasmid: MPG/DNA (black boxes) or MPG^ΔNLS/DNA (grey boxes) complexes formed at a charge ratio of 5/1 with 100 ng pRL-SV40 plasmid encoding the reporter gene luciferase were overlaid onto synchronized or arrested (-FCS) human fibroblasts (Hs68). Luciferase activity was monitored 12 hrs and 24 hrs after release from synchrony, or after 24 hrs for arrested cells and 48 hrs for asynchronous cells. […]
Plasmids for the expression of recombinant GST-fusion protein importin α and importin β were kindly provided by B. Cullen. […] DNA was then extracted from the complexes with phenol-chloroform, followed by ethanol precipitation, and finally analyzed by agarose gel electrophoresis (0.8%).
MPG peptide is derived from the nuclear localization sequence of the SV 40 large T antigen and from the fusion peptide domain of HIV-1 gp41 protein (17). […] Then, both bound and unbound fractions were analyzed by agarose gel electrophoresis.

| Sequence | final subcellular localization of fluorescently-labeled siRNA (Hs68 human fibroblasts) | efficiency of siRNA delivery into cultured cells (% cells) (Hs68 human fibroblasts) | interaction of carrier/DNA complex with importin α (importin α) |
| --- | --- | --- | --- |
| GALFLGFLGAAGSTMGAWSQPKKKRKV (carrier peptide) [MPG, bipartite amphipathic peptide derived from fusion peptide domain of HIV-1 gp41 and NLS of SV40 large T antigen] | localized rapidly to the nucleus | about 90 % cells | significantly interacted specifically with importin α |
| GALFLGFLGAAGSTMGAWSQPKSKRKV (carrier peptide) [MPG^ΔNLS, MPG variant with single mutation of the second lysine residue in the NLS motif to serine] | remained mostly in the cytoplasm | about 90 % cells | dramatically reduced |

— patent publication US8354387B2, “Methods and compositions for delivering siRNA into mammalian cells” (Centre National de la Recherche Scientifique, priority 2004, dated 2013)
